The values that follow are results of earlier work, collected in US20240277751A1, “CRYSTALLINE POLYMORPHIC FORMS OF STING AGONISTS ASSOCIATED WITH METAL IONS CAPABLE OF MODULATING AN IMMUNE RESPONSE” (priority 2020, published 2024).

Take `Nc1ncnc2c1ncn2[C@@H]1O[C@@H]2COP(=O)([S-])O[C@@H]3[C@H](O)[C@@H](COP([O-])(=S)O[C@H]2[C@H]1O)O[C@H]3n1cnc2c(N)ncnc21.[Na+].[Na+]` (some centres unmarked) [MIW815]: under “1 hour after intratumor injection, phase I clinical trial”, the “fraction entered the systemic circulation” value is given as “over 98%”. Where the note is “in vivo”, the half-life in serum is about 16 min.
